Consider two compounds from US20220096592A1, “PIC1 VARIANTS WITH IMPROVED SOLUBILITY AND METHODS OF USING THE SAME” (priority 2019, published 2022).

One experiment concerns the target purified C1q (UniProt P02745). The experiment in a line: cell-based or functional assay.
Another experiment deals with T1, MPO heme ring (Homo sapiens, UniProt P05164).
T1 construct: purchased Lee BioSolutions (Maryland Heights, Mo.)
In words: MPO heme ring oxidative degradation (absorbance 300-550 nm). The format is biochemical. The conditions noted are these: peptides at 3 mM, with H2O2, FIG. 3A-3H. The method, then: In a 96 well plate, 0.025 ml of 1.7 mg/ml MPO was combined with 0.00125 ml of 0.5% H2O2 and 3 mM PIC1 or sarcosine variant peptides in a total volume of 0.125 ml PBS and left to incubate at room temperature for 2 minutes. Using a 96 well plate reader, the wells were scanned for absorbance from 300-550 nm to generate curves reflecting the iron state in the MPO heme ring, as previously reported.
The ability of the variants to prevent degradation of the heme ring in the MPO molecule was then evaluated. […] Degradation of the heme ring can be evaluated via spectrometric measurements of absorption of wavelengths from 300 to 550 nm.

For a further experiment, the target named is T2, MPO (Homo sapiens, UniProt P05164).
T2 construct: purchased Lee BioSolutions (Maryland Heights, Mo.)
In words: plate-based assay of binding to solid phased MPO. To be noted: binding curves and half-maximal binding, FIG. 2C, 2D. The protocol:
(§1) The plates were washed with PBST (phosphate buffered saline+0.1% Tween) and then blocked with 1% gelatin/PBS for 2 hours at room temperature. After washing, the plates were incubated with PA or sarcosine variant peptides starting at 2.5 mg/ml and then serially diluted in 1% gelatin/PBS for 1 hour at room temperature. After washing, the plates were probed with rabbit anti-PA (developed with Cocalico Biologicals, Reamstown, Pa.) at 1:1000 in 1% gelatin/PBS for 1 hour, room temperature, followed by a goat anti-rabbit HRP (Sigma Aldrich, St Louis, Mo.) at 1:1,000 in 1% gelatin/PBS for 1 hour at room temperature with a washing step in between. Wells were developed using TMB substrate solution, stopped using 1 N H2SO4, and read at 450 nm in a plate reader.
A plate-based assay was performed to test the binding of the peptide variants to solid phased MPO. MPO binding was identified for all variants, except for C9,10.

Experiment [1] deals with classical complement pathway. The conditions noted are these: peptides at 0.4 mM, compared with PA-dPEG24, FIG. 1B. The protocol:
(§2) For hemolytic complement assays, human red blood cells (RBCs) from type AB donors were purified, washed and standardized to 1×10^9 cells/ml, as previously described. Human sera from type 0 donors at a 20% final concentration was combined with […] PIC1 or sarcosine variant peptides, and the volume was brought up to 0.15 ml with GVBS^++ and […] RBCs. For factor B-depleted sera hemolytic assays, a final of 0.005% factor B depleted sera was incubated with […] PIC1 or sarcosine variant peptides with 0.1 ml antibody-sensitized sheep red blood cells (EA) in a final volume of 0.75 ml GVBS^++. The samples were incubated for one hour at 37° C. Then, 1.0 ml of GVBS^−− was added to the factor B-depleted samples to stop the reaction. The samples were spun at 3,000 rpm for 5 minutes. The supernatant was then collected and read at 412 nm. An analysis was performed to represent the values as a percent of the positive control, which consists of human 0 sera and AB red blood cells in GVBS^++ buffer.
(§3) An evaluation of the extent to which the peptide variants inhibit antibody-initiated complement activation was performed. The peptide variants were tested in the following two hemolytic assays: (i) an ABO incompatibility ex vivo assay and (ii) a classical pathway CH50-type assay in factor B-depleted sera.
A CH50-type hemolytic assay was then performed. with antibody-sensitized sheep erythrocytes, isolating the classical pathway by utilizing factor B-depleted sera; peptides were tested at 0.4 mM.

Experiment [2] has as its system antibody-initiated complement activation (ABO incompatible hemolysis). The method, then:
as §2, §3
In the ABO incompatibility hemolytic assay, purified erythrocytes from a ‘type AB+’ donor were incubated with sera from a ‘type 0’ subject containing anti-A and anti-B antibodies; peptides were tested at 1.8 mM.

The target in the next experiment is T3, C1q (Homo sapiens, UniProt P02745+P02746+P02747).
T3 construct: purchased Complement Technology (Tyler, Tex.)
The experiment in a line: ELISA-type assay of peptide binding to C1q. The conditions noted are these: binding curves and half-maximal binding, FIG. 1C, 1D; listed as 18. The protocol:
as §1
Higher concentrations of DMSO interfere with the detecting reagents resulting in a partial binding curve.
(In general: In an ELISA, binding on a coated surface is turned into a signal by an enzyme label.)

Experiment [3] in a line: Total Antioxidant Capacity (TAC) assay. The conditions noted are these: 0.03-0.25 mM, copper reducing equivalents, FIG. 4. The protocol: The TAC (Total Antioxidant Capacity) Assay (Cell Biolabs, Inc. San Diego, Calif.) was used to measure the antioxidant capacity of the sarcosine variants based on the reduction of copper (II) to copper (I). The assay was performed according to the recommended kit protocol.
Antioxidant activity was measured in copper reducing equivalents (CRE). Peptides were tested over a range of concentrations from 0.03-0.25 mM then compared to the standard.

A further experiment has as its target T4, myeloperoxidase (MPO) (Homo sapiens, UniProt P05164).
T4 construct: purchased Lee BioSolutions (Maryland Heights, Mo.)
In words: MPO peroxidase activity, TMB-based assay. The format is biochemical. To be noted: dose-response and half-maximal inhibition, FIG. 2A, 2B. The protocol: PIC1 and sarcosine variants were diluted to 25 mg/ml and then serially titrated in a 96 well plate at a volume of 0.02 ml. Myeloperoxidase (MPO) was diluted to 20 μg/ml and 0.02 ml was added to the titrated peptides. TMB (3,3′,5,5′-tetramethylbenzidine) (0.1 ml) was added to each well for 2 minutes, followed by 0.1 ml of 2.5 N H2SO4 for another 2 minutes, and then read on a 96 well plate reader (BioTek) at 450 nm.
In this assay, the variants were tested for MPO inhibition over a range of concentrations. Strong MPO inhibition was found for all variants with the exception of the no-cysteine variant (C9,10).

Entries after “also recorded” stand apart in the source; their conditions may differ. Where a SMILES comes first, the peptide text is derived from it. [ ]: non-standard residue; d: D form. Sar = CNCC(=O)O

T3 sequence (P02745 23-245): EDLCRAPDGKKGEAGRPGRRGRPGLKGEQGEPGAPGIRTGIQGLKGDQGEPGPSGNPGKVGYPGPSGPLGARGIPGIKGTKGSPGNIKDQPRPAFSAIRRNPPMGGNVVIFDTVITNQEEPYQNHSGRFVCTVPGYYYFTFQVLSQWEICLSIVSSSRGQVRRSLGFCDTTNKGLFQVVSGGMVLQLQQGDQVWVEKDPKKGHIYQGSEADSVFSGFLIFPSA
T3 sequence (P02746 28-253): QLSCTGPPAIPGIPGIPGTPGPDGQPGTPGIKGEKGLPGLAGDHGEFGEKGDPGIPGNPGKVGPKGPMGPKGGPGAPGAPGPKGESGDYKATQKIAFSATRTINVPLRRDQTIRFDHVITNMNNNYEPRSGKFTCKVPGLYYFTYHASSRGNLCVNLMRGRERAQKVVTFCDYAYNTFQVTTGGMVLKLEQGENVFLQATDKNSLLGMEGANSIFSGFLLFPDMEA
T3 sequence (P02747 29-245): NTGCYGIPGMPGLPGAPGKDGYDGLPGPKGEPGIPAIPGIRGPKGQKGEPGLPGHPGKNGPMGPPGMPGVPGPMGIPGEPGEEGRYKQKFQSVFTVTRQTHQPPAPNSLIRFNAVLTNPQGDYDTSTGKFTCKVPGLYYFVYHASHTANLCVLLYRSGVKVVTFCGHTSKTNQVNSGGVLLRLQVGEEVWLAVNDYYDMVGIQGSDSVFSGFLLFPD
T2 sequence (P05164 279-745 limits assumed): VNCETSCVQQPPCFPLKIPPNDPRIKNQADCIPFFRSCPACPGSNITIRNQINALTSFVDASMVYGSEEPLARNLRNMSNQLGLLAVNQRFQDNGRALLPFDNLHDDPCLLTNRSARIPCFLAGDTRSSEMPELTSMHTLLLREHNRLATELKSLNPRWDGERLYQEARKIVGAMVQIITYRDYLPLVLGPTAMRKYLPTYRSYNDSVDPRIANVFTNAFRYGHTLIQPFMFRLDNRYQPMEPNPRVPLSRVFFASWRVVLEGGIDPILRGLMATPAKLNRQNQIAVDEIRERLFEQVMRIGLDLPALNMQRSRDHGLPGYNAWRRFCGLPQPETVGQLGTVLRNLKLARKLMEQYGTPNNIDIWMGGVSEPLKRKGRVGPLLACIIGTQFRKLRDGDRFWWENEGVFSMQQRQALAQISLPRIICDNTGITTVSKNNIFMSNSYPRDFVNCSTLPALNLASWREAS
T2 sequence (P05164 165-273 limits assumed): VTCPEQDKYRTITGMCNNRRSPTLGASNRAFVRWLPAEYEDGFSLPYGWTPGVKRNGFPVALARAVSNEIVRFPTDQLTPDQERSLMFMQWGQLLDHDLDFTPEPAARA
T1 sequence (P05164 279-745 limits assumed): as the sequence (P05164 279-745 limits assumed) above
T1 sequence (P05164 165-273 limits assumed): as the sequence (P05164 165-273 limits assumed) above
T4 sequence (P05164 279-745 limits assumed): as the sequence (P05164 279-745 limits assumed) above
T4 sequence (P05164 165-273 limits assumed): as the sequence (P05164 165-273 limits assumed) above
purified C1q, sequence (P02745 23-245 limits assumed, chain 1 of 3): as the sequence (P02745 23-245) above
purified C1q, sequence (P02746 28-253 limits assumed, chain 2 of 3, further chain): as the sequence (P02746 28-253) above
purified C1q, sequence (P02747 29-245 limits assumed, chain 3 of 3, further chain): as the sequence (P02747 29-245) above

Take “PA-I8Sar (H2N-IALILEP(Sar)CCQERAA-OH) (peptide)”: the inhibition of classical pathway hemolysis in factor B-depleted sera, more than PA-dPEG24 (peptides at 0.4 mM) with purified C1q came to 75%.
For `CC[C@H](C)[C@H](N)C(=O)N[C@@H](C)C(=O)N[C@@H](CC(C)C)C(=O)N[C@H](C(=O)N[C@@H](CC(C)C)C(=O)N[C@@H](CCC(=O)O)C(=O)N1CCC[C@H]1C(=O)N(C)CC(=O)N[C@@H](CS)C(=O)N[C@@H](CS)C(=O)N[C@@H](CCC(N)=O)C(=O)N[C@@H](CCC(=O)O)C(=O)N[C@@H](CCCNC(=N)N)C(=O)N[C@@H](C)C(=O)N[C@@H](C)C(=O)O)[C@@H](C)CC` [I8, H2N-IALILEP(Sar)CCQERAA-OH] (H-IALILEP[Sar]CCQERAA-OH), the “inhibition of heme ring degradation, in words” value against MPO heme ring is “near perfect preservation of the heme ring absorption spectrum”. Also, on MPO, the “binding to MPO, in words” value is reported as “superior binding to MPO, as compared with the other sarcosine variants”. Also, the “inhibition of classical pathway hemolysis, in words” value in experiment [1] is on record as “superior activity”. Further, the “complement inhibition overall, in words” value in experiment [2] (both hemolytic complement inhibition assays) was “superior inhibition of antibody-initiated complement activation and hemolysis compared with PA and other peptide variants”. Also, the “inhibition of ABO incompatible hemolysis, in words” value in experiment [2] (peptides at 1.8 mM, compared with PA-dPEG24, FIG. 1A) was “inhibited ABO incompatible hemolysis to a greater extent than did the PA-dPEG24”. In addition, the “binding to C1q, in words” value at C1q is given as “superior binding to C1q as compared with the other peptides; also recorded: slightly superior to that of PA-dPEG24”. Also, the “total antioxidant capacity, in words” value in experiment [3] is listed as “antioxidant capacity approaching that of PA-dPEG24”. Further, at myeloperoxidase (MPO), the “MPO inhibition, in words” value was “greatest potency among the different variants”.
